Source: US20040156869A1, “2-substituted quinazolin-4-ylamine analogues” (Neurogen Corporation, priority 2002, published 2004)

molecular target: human capsaicin receptor (VR1) (Homo sapiens, UniProt Q8NER1); assay: Capsaicin receptor binding assay ([3H]RTX competition, VR1-transfected HEK293 membranes); conditions: not given
Sequence (Q8NER1 whole entry): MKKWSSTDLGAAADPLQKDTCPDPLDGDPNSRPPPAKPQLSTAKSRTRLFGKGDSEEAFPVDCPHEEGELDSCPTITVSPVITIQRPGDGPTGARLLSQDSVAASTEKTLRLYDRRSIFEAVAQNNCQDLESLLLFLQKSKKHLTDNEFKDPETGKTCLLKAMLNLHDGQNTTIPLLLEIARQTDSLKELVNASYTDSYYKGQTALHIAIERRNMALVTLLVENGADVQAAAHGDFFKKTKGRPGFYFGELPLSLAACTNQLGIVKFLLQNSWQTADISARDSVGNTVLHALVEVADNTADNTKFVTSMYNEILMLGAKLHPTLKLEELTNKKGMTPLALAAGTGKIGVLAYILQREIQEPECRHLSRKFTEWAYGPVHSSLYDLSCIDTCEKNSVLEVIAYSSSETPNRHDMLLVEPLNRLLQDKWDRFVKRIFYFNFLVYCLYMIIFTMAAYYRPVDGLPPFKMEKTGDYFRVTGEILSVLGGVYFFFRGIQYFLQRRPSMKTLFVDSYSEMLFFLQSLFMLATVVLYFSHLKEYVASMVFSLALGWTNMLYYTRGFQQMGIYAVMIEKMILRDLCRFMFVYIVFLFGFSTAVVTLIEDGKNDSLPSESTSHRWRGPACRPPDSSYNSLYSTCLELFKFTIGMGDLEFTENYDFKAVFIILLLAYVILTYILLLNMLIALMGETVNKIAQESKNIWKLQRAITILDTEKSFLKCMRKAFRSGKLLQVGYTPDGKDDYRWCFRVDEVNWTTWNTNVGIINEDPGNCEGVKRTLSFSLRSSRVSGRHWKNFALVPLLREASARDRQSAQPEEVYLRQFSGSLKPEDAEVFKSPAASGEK

Q: `C=CCN(CC=C)Cc1nc(Nc2ccc(C(F)(F)F)cc2)c2ncc(-c3ncccc3C(F)(F)F)cc2n1` [Compound 663, [2-Diallylaminomethyl-7-(3-trifluoromethyl-pyridin-2-yl)-pyrido[3,2-d]pyrimidin-4-yl]-(4-trifluoromethyl-phenyl)-amine] was tested. Which Ki did it give?
A: < 1000 nM

Q: How did the Ki turn out when `OC1CCCN(CCc2nc(Nc3ccc(C(F)(F)F)cc3)c3ccc(-c4ncccc4C(F)(F)F)cc3n2)C1` (centres unmarked) [Compound 588, [2-(3-Hydroxy-piperidin-1-ylethyl)-7-(3-trifluoromethyl-pyridin-2-yl)-quinazolin-4-yl]-(4-trifluoromethyl-phenyl)-amine] was run?
A: < 1000 nM

Q: With `CC(C)COCc1nc(Nc2ccc(C(F)F)cc2)c2ccc(-c3ncccc3C(F)(F)F)nc2n1` [Compound 242, (4-Difluoromethyl-phenyl)-[2-isobutoxymethyl-7-(3-trifluoromethyl-pyridin-2-yl)-pyrido[2,3-d]pyrimidin-4-yl]-amine] as the compound, how does the Ki read?
A: < 1000 nM

Q: For `CCOCc1nc(Nc2ccc(C(F)F)cc2)c2ccc(-c3ncccc3C(F)(F)F)nc2n1` [Compound 241, (4-Difluoromethyl-phenyl)-[2-ethoxymethyl-7-(3-trifluoromethyl-pyridin-2-yl)-pyrido[2,3-d]pyrimidin-4-yl]-amine], which Ki is on record?
A: < 1000 nM

Q: For `C[C@H]1CN(Cc2nc(Nc3ccc(C(F)(F)F)nc3)c3ccc(-c4ncccc4Cl)cc3n2)C[C@H](C)O1` [Compound 608, (S,S)-[7-(3-Chloro-pyridin-2-yl)-2-(2,6-dimethyl-morpholin-4-ylmethyl)-quinazolin-4-yl]-(6-trifluoromethyl-pyridin-3-yl)-amine], which Ki is on record?
A: < 1000 nM

Q: For `CCCCN(C)Cc1nc(Nc2ccc(C(F)(F)F)nc2)c2ccc(-c3ncccc3C(F)(F)F)cc2n1` [Compound 370, [2-[(Butyl-methyl-amino)-methyl]-7-(3-trifluoromethyl-pyridin-2-yl)-quinazolin-4-yl]-(6-trifluoromethyl-pyridin-3-yl)-amine], which Ki is on record?
A: < 1000 nM

Q: With `COCc1nc(Nc2ccc(Cl)c(C(F)(F)F)c2)c2ccc(-c3ncccc3C(F)(F)F)nc2n1` [Compound 294] as the compound, how does the Ki read?
A: < 1000 nM

Q: For `CC(C)c1ccc(Nc2nc(CN3C[C@H](C)O[C@@H](C)C3)nc3cc(-c4ncccc4Cl)ccc23)cc1` [Compound 650, (S,S)-[7-(3-Chloro-pyridin-2-yl)-2-(2,6-dimethyl-morpholin-4-ylmethyl)-quinazolin-4-yl]-(4-isopropyl-phenyl)-amine], which Ki is on record?
A: < 1000 nM

Q: How did the Ki turn out when `CC(c1ccc(Nc2nc(CN3CCOCC3)nc3cc(-c4ncccc4C(F)(F)F)ccc23)cc1)C(F)(F)F` (centres unmarked) [Compound 524, [2-Morpholin-4-ylmethyl-7-(3-trifluoromethyl-pyridin-2-yl)-quinazolin-4-yl]-[4-(2,2,2-trifluoro-1-methyl-ethyl)-phenyl]-amine] was run?
A: < 1000 nM

Q: How did the Ki turn out when `CCOC(=O)Cc1ccc(Nc2nc(COCC(C)C)nc3nc(-c4ncccc4Cl)ccc23)cc1` [Compound 283, {4-[7-(3-Chloro-pyridin-2-yl)-2-isobutoxymethyl-pyrido[2,3-d]pyrimidin-4-ylamino]-phenyl}-acetic acid ethyl ester] was run?
A: < 1000 nM

Q: For `FC(F)(F)c1ccc(Nc2nc(CCN(Cc3ccccc3)C3CC3)nc3cc(-c4ncccc4C(F)(F)F)ccc23)cc1` [Compound 397, [2-[2-(Benzyl-cyclopropyl-amino)-ethyl]-7-(3-trifluoromethyl-pyridin-2-yl)-quinazolin-4-yl]-(4-trifluoromethyl-phenyl)-amine], which Ki is on record?
A: < 1000 nM

Q: For `C[C@@H]1CN(Cc2nc(Nc3ccc(C(F)(F)F)cc3)c3ccc(-c4ccccn4)cc3n2)C[C@H](C)O1` [Compound 619, [2-(2,6-Dimethyl-morpholin-4-ylmethyl)-7-pyridin-2-yl-quinazolin-4-yl]-(4-trifluoromethyl-phenyl)-amine (cis)], which Ki is on record?
A: < 1000 nM

Q: Which Ki does the source give for `C[C@@H]1CN(Cc2nc(Nc3ccc(S(=O)(=O)C(F)(F)F)cc3)c3ncc(-c4ncccc4C(F)(F)F)cc3n2)C[C@H](C)O1` [Compound 593, [2-(2,6-Dimethyl-morpholin-4-ylmethyl)-7-(3-trifluoromethyl-pyridin-2-yl)-pyrido[3,2-d]pyrimidin-4-yl]-(4-trifluoromethanesulfonyl-phenyl)-amine (cis)] here?
A: < 1000 nM

Q: Which Ki does the source give for `CC(C)OCc1nc(Nc2ccc(S(=O)(=O)N3CCOCC3)cc2)c2ccc(-c3ncccc3C(F)(F)F)cc2n1` [Compound 128, [2-Isopropoxymethyl-7-(3-trifluoromethyl-pyridin-2-yl)-quinazolin-4-yl]-[4-(morpholine-4-sulfonyl)-phenyl]-amine] here?
A: < 1000 nM

Q: `FC(F)(F)c1ccc(Nc2nc(CN3CCSCC3)nc3cc(-c4ncccc4C(F)(F)F)cnc23)cc1` [Compound 660, [2-Thiomorpholin-4-ylmethyl-7-(3-trifluoromethyl-pyridin-2-yl)-pyrido[3,2-d]pyrimidin-4-yl]-(4-trifluoromethyl-phenyl)-amine] was tested. Which Ki did it give?
A: < 1000 nM

Q: How did the Ki turn out when `Cc1cccnc1-c1ccc2c(Nc3ccc(C(F)(F)F)cc3)nc(COCC(C)C)nc2n1` [Compound 131, [2-Isobutoxymethyl-7-(3-methyl-pyridin-2-yl)-pyrido[2,3-d]pyrimidin-4-yl]-(4-trifluoromethyl-phenyl)-amine] was run?
A: < 1000 nM

Q: `CN1CCN(CCCNC(=O)c2nc(Nc3ccc(C(F)(F)F)cc3)c3ccc(-c4ncccc4C(F)(F)F)nc3n2)CC1` [Compound 433, 4-(4-Trifluoromethyl-phenylamino)-7-(3-trifluoromethyl-pyridin-2-yl)-pyrido[2,3-d]pyrimidine-2-carboxylic acid [3-(4-methyl-piperazin-1-yl)-propyl]-amide] was tested. Which Ki did it give?
A: < 1000 nM

Q: With `O=C(O)[C@@H]1CCCN1C(=O)c1nc(Nc2ccc(C(F)(F)F)cc2)c2ccc(-c3ncccc3C(F)(F)F)nc2n1` [Compound 768, (S)-1-[4-(4-Trifluoromethyl-phenylamino)-7-(3-trifluoromethyl-pyridin-2-yl)-pyrido[2,3-d]pyrimidine-2-carbonyl]-pyrrolidine-2-carboxylic acid] as the compound, how does the Ki read?
A: < 1000 nM

Q: Which Ki does the source give for `FC(F)(F)c1ccc(Nc2nc(-c3ccncc3)nc3cc(-c4ncccc4C(F)(F)F)ccc23)cc1` [Compound 507, [2-Pyridin-4-yl-7-(3-trifluoromethyl-pyridin-2-yl)-quinazolin-4-yl]-(4-trifluoromethyl-phenyl)-amine] here?
A: < 1000 nM

Q: For `O=C(O)c1nc(Nc2ccc(C(F)(F)F)cc2)c2ccc(-c3ncccc3C(F)(F)F)nc2n1` [Compound 206, 4-(4-Trifluoromethyl-phenylamino)-7-(3-trifluoromethyl-pyridin-2-yl)-pyrido[2,3-d]pyrimidine-2-carboxylic acid], which Ki is on record?
A: < 1000 nM

Q: For `COCc1nc(Nc2ccc(C(C)(C)C)cc2)c2ccc(-c3ncccc3C(F)(F)F)nc2n1` [Compound 107, (4-tert-Butyl-phenyl)-[2-methoxymethyl-7-(3-trifluoromethyl-pyridin-2-yl)-pyrido[2,3-d]pyrimidin-4-yl]-amine], which Ki is on record?
A: < 1000 nM

Q: Which Ki does the source give for `CCOCc1nc(Nc2ccc(C(C)(C)C)nc2)c2ccc(-c3ncccc3Cl)cc2n1` [Compound 82, (6-tert-Butyl-pyridin-3-yl)-[7-(3-chloro-pyridin-2-yl)-2-ethoxymethyl-quinazolin-4-yl]-amine] here?
A: < 1000 nM

Q: `C[C@@H]1CN(Cc2nc(Nc3ccc(C(C)(C)C)nc3)c3ccc(-c4ncccc4Cl)cc3n2)C[C@@H](C)O1` [Compound 607, (R,R)-(6-tert-Butyl-pyridin-3-yl)-[7-(3-chloro-pyridin-2-yl)-2-(2,6-dimethyl-morpholin-4-ylmethyl)-quinazolin-4-yl]-amine] was tested. Which Ki did it give?
A: < 1000 nM

Q: Which Ki does the source give for `CCOCc1nc(Nc2ccc(C(F)(F)F)cc2)c2ccc(-c3ncccc3Cl)nc2n1` [Compound 134, [7-(3-Chloro-pyridin-2-yl)-2-ethoxymethyl-pyrido[2,3-d]pyrimidin-4-yl]-(4-trifluoromethyl-phenyl)-amine] here?
A: < 1000 nM

Q: For `CC(C)COCc1nc(Nc2ccc(C(C)(C)C)nc2)c2ccc(-c3ncccc3Cl)nc2n1` [Compound 194, (6-tert-Butyl-pyridin-3-yl)-[7-(3-chloro-pyridin-2-yl)-2-isobutoxymethyl-pyrido[2,3-d]pyrimidin-4-yl]-amine], which Ki is on record?
A: < 1000 nM

Q: `Cn1ccnc1CN1CCC(c2nc(Nc3ccc(C(F)(F)F)cc3)c3ccc(-c4ncccc4C(F)(F)F)cc3n2)CC1` [Compound 692, [2-[1-(1-Methyl-1H-imidazol-2-ylmethyl)-piperidin-4-yl]-7-(3-trifluoromethyl-pyridin-2-yl)-quinazolin-4-yl]-(4-trifluoromethyl-phenyl)-amine] was tested. Which Ki did it give?
A: < 1000 nM

Q: `CCN(CC)CCc1nc(Nc2ccc(C(F)(F)F)cc2)c2ccc(-c3ncccc3C(F)(F)F)cc2n1` [Compound 411, [2-Diethylaminoethyl-7-(3-trifluoromethyl-pyridin-2-yl)-quinazolin-4-yl]-(4-trifluoromethyl-phenyl)-amine] was tested. Which Ki did it give?
A: < 1000 nM

Q: For `CC(C)COCc1nc(Nc2ccc(CO)cc2)c2ccc(-c3ncccc3Cl)nc2n1` [Compound 277, {4-[7-(3-Chloro-pyridin-2-yl)-2-isobutoxymethyl-pyrido[2,3-d]pyrimidin-4-ylamino]-phenyl}-methanol], which Ki is on record?
A: < 1000 nM

Q: Which Ki does the source give for `COCCOCc1nc(Nc2ccc(C(C)C)cc2)c2ccc(-c3ncccc3Cl)nc2n1` [Compound 77, [7-(3-Chloro-pyridin-2-yl)-2-(2-methoxy-ethoxymethyl)-pyrido[2,3-d]pyrimidin-4-yl]-(4-isopropyl-phenyl)-amine] here?
A: < 1000 nM

Q: `Cc1cccnc1-c1ccc2c(Nc3ccc(C(F)(F)F)cc3)nc(CN3CC[C@@H](CO)C3)nc2c1` [Compound 733, (R)-{1-[7-(3-Methyl-pyridin-2-yl)-4-(4-trifluoromethyl-phenylamino)-quinazolin-ylmethyl]-pyrrolidin-3-yl}-methanol] was tested. Which Ki did it give?
A: < 1000 nM

Q: `FC(F)(F)c1ccc(Nc2nc(CNCc3ccccc3)nc3cc(-c4ncccc4C(F)(F)F)ccc23)nc1` [Compound 560, [2-(Benzylamino-methyl)-7-(3-trifluoromethyl-pyridin-2-yl)-quinazolin-4-yl]-(5-trifluoromethyl-pyridin-2-yl)-amine] was tested. Which Ki did it give?
A: < 1000 nM

same assay, conditions: Table III; capsaicin receptor binding

Q: “[2-(2,6-Dimethyl- morpholin-4-ylmethyl)-7- (3-trifluoromethyl-pyridin- 2-yl)-pyrido[3,2- d]pyrimidin-4-yl]-(4- methanesulfonyl-phenyl)- amine (cis) [Compound 584]” was tested. Which Ki did it give?
A: < 1000 nM
